Reference: patent US20030068383A1, “Time release nutritional supplement” (priority 2001, published 2003)

Experiments:
[1] = Acid damage to Ribose loaded into 1% cross-linked resin with boiling water; format: physicochemical; details: 5.9 grams Ribose
[2] = ingested dose, human body; cited from earlier work

Compound | Fate of Ribose within the resin matrix ([1]; 2 grams 1% cross-linked sulfonated resin, 10 grams water preheated to boiling) | Fate of Ribose within the resin matrix ([1]; 2 grams sulfonated resin ion exchanged with Li or K salt, 10 grams water) | Dose typically associated with side effects (diarrhea, gas, flatulence, nausea, stomach cramps) [2]
O=C[C@H](O)[C@H](O)[C@H](O)CO [Ribose, D-Ribose] | destroyed | active and useful | 
CN(CC(=O)O)C(=N)N [creatine, Creatine] |  |  | over 5 grams
